Where two headings read alike, the source gives them in different places.
Columns and labels:
Assay in all cases: MTT cell proliferation assay
Assay type in all cases: cell-based
3T3 cells = conditions: Mus musculus, NIH3T3, approximately 64-72 hours incubation
In short: (§1)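 5,000-10,000 cells/well, overnight attach; 8 conc., 1 nM–30 μM; MTT ~4 h; formazan solubilized, OD 490 nm; % inhibition = (1−(ODo/OD))×100 vs neg. control; mostly duplicate, mean±SE.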

MS751 cells = conditions: Homo sapiens, MS751, MS751 cells, approximately 64-72 hours incubation
In short: as §1

Z138 cells = conditions: Homo sapiens, Z-138, Z138 cells, approximately 64-72 hours incubation
In short: as §1

[1] = read-out: MTT Assay IC50, MS-751
[2] = read-out: MTT Assay IC50, Z-138
[3] = read-out: MTT Assay IC50 MS-751

Work on `Nc1ccc(/C=C/C(=O)NCc2cc3cc(-c4ccc(C(=S)N5CCC(F)(F)CC5)cn4)cc(-c4ccncc4)c3o2)cn1` [Compound 707, (E)-3-(6-aminopyridin-3-yl)-N-((5-(5-(4,4-difluoropiperidine-1-carbonothioyl)pyridin-2-yl)-7-(pyridin-4-yl)benzofuran-2-yl)methyl)acrylamide] yielded an IC50 (3T3 cells; read-out: MTT Assay IC50, 3T3) of 100 to 5000 nM, an IC50 (MS751 cells; [1]) of less than 100 nM and an IC50 (Z138 cells; [2]) of less than 100 nM.

With `Cc1noc(C)c1C(O)c1ccc(-c2cc(Cl)c3oc(CNC(=O)/C=C/c4ccc(N)nc4)cc3c2)s1` (stereo not drawn) [Compound 578, (E)-3-(6-aminopyridin-3-yl)-N-((7-chloro-5-(5-((3,5-dimethylisoxazol-4-yl)(hydroxy)methyl)thiophen-2-yl)benzofuran-2-yl)methyl)acrylamide] the IC50 (3T3 cells; read-out: MTT Assay IC50 3T3) was greater than 10000 nM, the IC50 (MS751 cells; [3]) was 5000 to 10000 nM and the IC50 (Z138 cells; read-out: MTT Assay IC50 Z-138) was 5000 to 10000 nM.

For `CC1(C)CNCCN1C(=O)c1ccc(-c2cc(C(F)(F)F)c3oc(CNC(=O)/C=C/c4ccc(N)nc4)cc3c2)cc1` [Compound 575, (E)-3-(6-aminopyridin-3-yl)-N-((5-(4-(2,2-dimethylpiperazine-1-carbonyl)phenyl)-7-(trifluoromethyl)benzofuran-2-yl)methyl)acrylamide], the IC50 (3T3 cells; read-out: MTT Assay IC50 3T3) was greater than 10000 nM, the IC50 (MS751 cells; [3]) was 100 to 5000 nM and the IC50 (Z138 cells; read-out: MTT Assay IC50 Z-138) was 100 to 5000 nM.

Compound `Nc1ccc(/C=C/C(=O)NCc2cc3cc(-c4ccc(C(=O)N5CCC(F)(F)CC5)cc4)cc(-c4ccncc4F)c3o2)cn1` [Compound 696, (E)-3-(6-aminopyridin-3-yl)-N-((5-(4-(4,4-difluoropiperidine-1-carbonyl)phenyl)-7-(3-fluoropyridin-4-yl)benzofuran-2-yl)methyl)acrylamide] has an IC50 (3T3 cells; read-out: MTT Assay IC50, 3T3) of 100 to 5000 nM, an IC50 (MS751 cells; [1]) of less than 100 nM and an IC50 (Z138 cells; [2]) of less than 100 nM.

Compound `Nc1ccc(/C=C/C(=O)NCc2cc3cc(-c4ncc(C(=O)N5CCC(F)(F)C5)cn4)cc(C(F)(F)F)c3o2)cn1` [Compound 653, (E)-3-(6-aminopyridin-3-yl)-N-((5-(5-(3,3-difluoropyrrolidine-1-carbonyl)pyrimidin-2-yl)-7-(trifluoromethyl)benzofuran-2-yl)methyl)acrylamide] has an IC50 (3T3 cells; read-out: MTT Assay IC50 3T3) greater than 10000 nM, an IC50 (MS751 cells; [3]) of 100 to 5000 nM and an IC50 (Z138 cells; read-out: MTT Assay IC50 Z-138) of 100 to 5000 nM.

With `Nc1ccc(/C=C/C(=O)NCc2cc3cc(-c4ccc(C(=O)N5CCNCC5)cn4)cc(Cl)c3o2)cn1` [Compound 589, (E)-3-(6-aminopyridin-3-yl)-N-((7-chloro-5-(5-(piperazine-1-carbonyl)pyridin-2-yl)benzofuran-2-yl)methyl)acrylamide] the IC50 (3T3 cells; read-out: MTT Assay IC50 3T3) was greater than 10000 nM, the IC50 (MS751 cells; [3]) was 100 to 5000 nM and the IC50 (Z138 cells; read-out: MTT Assay IC50 Z-138) was less than 100 nM.

For `Nc1ccc(/C=C/C(=O)NCc2cc3cc(-c4ccc(C(=O)N5CC6(COC6)C5)cn4)cc(C(F)(F)F)c3o2)cn1` [Compound 625, (E)-N-((5-(5-(2-oxa-6-azaspiro[3.3]heptane-6-carbonyl)pyridin-2-yl)-7-(trifluoromethyl)benzofuran-2-yl)methyl)-3-(6-aminopyridin-3-yl)acrylamide], the IC50 (3T3 cells; read-out: MTT Assay IC50 3T3) was 100 to 5000 nM, the IC50 (MS751 cells; [3]) was less than 100 nM and the IC50 (Z138 cells; read-out: MTT Assay IC50 Z-138) was less than 100 nM.

Work on `Nc1ccc(/C=C/C(=O)NCc2cc3cc(-c4ccc(C(=O)N5CCC(Cl)CC5)cn4)cc(C(F)(F)F)c3o2)cn1` [Compound 614, (E)-3-(6-aminopyridin-3-yl)-N-((5-(5-(4-chloropiperidine-1-carbonyl)pyridin-2-yl)-7-(trifluoromethyl)benzofuran-2-yl)methyl)acrylamide] yielded an IC50 (3T3 cells; read-out: MTT Assay IC50 3T3) greater than 10000 nM, an IC50 (MS751 cells; [3]) of 100 to 5000 nM and an IC50 (Z138 cells; read-out: MTT Assay IC50 Z-138) of 100 to 5000 nM.

Work on `Nc1ccc(/C=C/C(=O)NCc2cc3cc(-c4ccc(C(=O)N5CCCNCC5)cc4)cc(C(F)(F)F)c3o2)cn1` [Compound 573, (E)-N-((5-(4-(1,4-diazepane-1-carbonyl)phenyl)-7-(trifluoromethyl)benzofuran-2-yl)methyl)-3-(6-aminopyridin-3-yl)acrylamide] yielded an IC50 (3T3 cells; read-out: MTT Assay IC50 3T3) greater than 10000 nM, an IC50 (MS751 cells; [3]) of less than 100 nM and an IC50 (Z138 cells; read-out: MTT Assay IC50 Z-138) of less than 100 nM.

Compound `Nc1ccc(/C=C/C(=O)NCc2cc3cc(-c4ccc(C(=O)N5CCC(F)CC5)cc4)cc(C(F)(F)F)c3o2)cn1` [Compound 567, (E)-3-(6-aminopyridin-3-yl)-N-((5-(4-(4-fluoropiperidine-1-carbonyl)phenyl)-7-(trifluoromethyl)benzofuran-2-yl)methyl)acrylamide] has an IC50 (3T3 cells; read-out: MTT Assay IC50 3T3) greater than 10000 nM, an IC50 (MS751 cells; [3]) of 100 to 5000 nM and an IC50 (Z138 cells; read-out: MTT Assay IC50 Z-138) of 100 to 5000 nM.

`Nc1ccc(/C=C/C(=O)NCc2cc3cc(-c4ccc(C(=O)N5CCOCC5)c(F)c4)cc(Cl)c3o2)cn1` [Compound 549, (E)-3-(6-aminopyridin-3-yl)-N-((7-chloro-5-(3-fluoro-4-(morpholine-4-carbonyl)phenyl)benzofuran-2-yl)methyl)acrylamide] showed an IC50 (3T3 cells; read-out: MTT Assay IC50 3T3) greater than 10000 nM, an IC50 (MS751 cells; [3]) of 100 to 5000 nM and an IC50 (Z138 cells; read-out: MTT Assay IC50 Z-138) of 100 to 5000 nM.

`COc1cc(-c2ccc(S(=O)(=O)N3CCOCC3)cc2)cc2cc(CNC(=O)/C=C/c3ccc(N)nc3)oc12` [Compound 635, (E)-3-(6-aminopyridin-3-yl)-N-((7-methoxy-5-(4-(morpholinosulfonyl)phenyl)benzofuran-2-yl)methyl)acrylamide] was tested, and the IC50 (3T3 cells; read-out: MTT Assay IC50 3T3) was 100 to 5000 nM, the IC50 (MS751 cells; [3]) was less than 100 nM and the IC50 (Z138 cells; read-out: MTT Assay IC50 Z-138) was less than 100 nM.

For `Nc1ccc(/C=C/C(=O)NCc2cc3cc(-c4ccc(C(=O)N5CC6CC5CO6)cn4)cc(C(F)(F)F)c3o2)cn1` (stereo not drawn) [Compound 633, (E)-N-((5-(5-(2-oxa-5-azabicyclo[2.2.1]heptane-5-carbonyl)pyridin-2-yl)-7-(trifluoromethyl)benzofuran-2-yl)methyl)-3-(6-aminopyridin-3-yl)acrylamide], the IC50 (3T3 cells; read-out: MTT Assay IC50 3T3) was greater than 10000 nM, the IC50 (MS751 cells; [3]) was 100 to 5000 nM and the IC50 (Z138 cells; read-out: MTT Assay IC50 Z-138) was 100 to 5000 nM.

With `COc1cc(-c2ncc(C(=O)N3CCNCC3)cn2)cc2cc(CNC(=O)/C=C/c3ccc(N)nc3)oc12` [Compound 639, (E)-3-(6-aminopyridin-3-yl)-N-((7-methoxy-5-(5-(piperazine-1-carbonyl)pyrimidin-2-yl)benzofuran-2-yl)methyl)acrylamide] the IC50 (3T3 cells; read-out: MTT Assay IC50 3T3) was greater than 10000 nM, the IC50 (MS751 cells; [3]) was 100 to 5000 nM and the IC50 (Z138 cells; read-out: MTT Assay IC50 Z-138) was 100 to 5000 nM.

`Nc1ccc(/C=C/C(=O)NCc2cc3cc(-c4ccc(C(=O)NCc5cccnc5)cn4)cc(C(F)(F)F)c3o2)cn1` [Compound 630, (E)-6-(2-((3-(6-aminopyridin-3-yl)acrylamido)methyl)-7-(trifluoromethyl)benzofuran-5-yl)-N-(pyridin-3-ylmethyl)nicotinamide] gave an IC50 (3T3 cells; read-out: MTT Assay IC50 3T3) of 100 to 5000 nM, an IC50 (MS751 cells; [3]) of less than 100 nM and an IC50 (Z138 cells; read-out: MTT Assay IC50 Z-138) of less than 100 nM.

Work on `CN1CCN(C(=O)c2ccc(-c3cc(C(F)(F)F)c4oc(CNC(=O)/C=C/c5ccc(N)nc5)cc4c3)nc2)CC1` [Compound 565, (E)-3-(6-aminopyridin-3-yl)-N-((5-(5-(4-methylpiperazine-1-carbonyl)pyridin-2-yl)-7-(trifluoromethyl)benzofuran-2-yl)methyl)acrylamide] yielded an IC50 (3T3 cells; read-out: MTT Assay IC50 3T3) of 100 to 5000 nM, an IC50 (MS751 cells; [3]) of less than 100 nM and an IC50 (Z138 cells; read-out: MTT Assay IC50 Z-138) of less than 100 nM.

`Nc1ccc(/C=C/C(=O)NCc2cc3cc(-c4ccc(C(=O)NNc5cnccn5)cc4)cc(C(F)(F)F)c3o2)cn1` [Compound 519, (E)-3-(6-aminopyridin-3-yl)-N-((5-(4-(2-(pyrazin-2-yl)hydrazinecarbonyl)phenyl)-7-(trifluoromethyl)benzofuran-2-yl)methyl)acrylamide] gave an IC50 (3T3 cells; read-out: MTT Assay IC50 3T3) greater than 10000 nM, an IC50 (MS751 cells; [3]) of 100 to 5000 nM and an IC50 (Z138 cells; read-out: MTT Assay IC50 Z-138) of 100 to 5000 nM.

Work on `Nc1ccc(/C=C/C(=O)NCCc2cc3cc(-c4ccc(C(=O)N5CCOCC5)cc4)cc(Cl)c3o2)cn1` [Compound 532, (E)-3-(6-aminopyridin-3-yl)-N-(2-(7-chloro-5-(4-(morpholine-4-carbonyl)phenyl)benzofuran-2-yl)ethyl)acrylamide] yielded an IC50 (3T3 cells; read-out: MTT Assay IC50 3T3) of less than 100 nM, an IC50 (MS751 cells; [3]) of less than 100 nM and an IC50 (Z138 cells; read-out: MTT Assay IC50 Z-138) of less than 100 nM.

`Nc1ccc(/C=C/C(=O)NCc2cc3cc(-c4ccc(C(=O)N5CC(F)(F)C5)cc4)cc(Cl)c3o2)cn1` [Compound 508, (E)-3-(6-aminopyridin-3-yl)-N-((7-chloro-5-(4-(3,3-difluoroazetidine-1-carbonyl)phenyl)benzofuran-2-yl)methyl)acrylamide] was tested, and the IC50 (3T3 cells; read-out: MTT Assay IC50 3T3) was greater than 10000 nM, the IC50 (MS751 cells; [3]) was 100 to 5000 nM and the IC50 (Z138 cells; read-out: MTT Assay IC50 Z-138) was 100 to 5000 nM.

Work on `CN1C(=O)c2ccc(-c3cc(Cl)c4oc(CNC(=O)/C=C/c5ccc(N)nc5)cc4c3)cc2C1=O` [Compound 514, (E)-3-(6-aminopyridin-3-yl)-N-((7-chloro-5-(2-methyl-1,3-dioxoisoindolin-5-yl)benzofuran-2-yl)methyl)acrylamide] yielded an IC50 (3T3 cells; read-out: MTT Assay IC50 3T3) greater than 10000 nM, an IC50 (MS751 cells; [3]) of 5000 to 10000 nM and an IC50 (Z138 cells; read-out: MTT Assay IC50 Z-138) of 100 to 5000 nM.

Work on `Nc1ccc(/C=C/C(=O)NCc2cc3cc(-c4ccc(C(=O)N5CCC(F)(F)CC5)cn4)cc(-c4ccc(F)cc4F)c3o2)cn1` [Compound 710, (E)-3-(6-aminopyridin-3-yl)-N-((7-(2,4-difluorophenyl)-5-(5-(4,4-difluoropiperidine-1-carbonyl)pyridin-2-yl)benzofuran-2-yl)methyl)acrylamide] yielded an IC50 (3T3 cells; read-out: MTT Assay IC50, 3T3) of 100 to 5000 nM, an IC50 (MS751 cells; [1]) of less than 100 nM and an IC50 (Z138 cells; [2]) of less than 100 nM.

For `Nc1ccc(/C=C/C(=O)NCc2cc3cc(-c4ccc(C(=O)N5CCC(F)(F)CC5)cc4)cc(-c4cc(F)cc(F)c4)c3o2)cn1` [Compound 734, (E)-3-(6-aminopyridin-3-yl)-N-((7-(3,5-difluorophenyl)-5-(4-(4,4-difluoropiperidine-1-carbonyl)phenyl)benzofuran-2-yl)methyl)acrylamide], the IC50 (3T3 cells; read-out: MTT Assay IC50, 3T3) was 100 to 5000 nM, the IC50 (MS751 cells; [1]) was less than 100 nM and the IC50 (Z138 cells; [2]) was less than 100 nM.

Work on `Nc1ccc(/C=C/C(=O)NCc2cc3cc(-c4ccc(C(=O)N5CCCCC5)cc4)cc(C(F)(F)F)c3o2)cn1` [Compound 595, (E)-3-(6-aminopyridin-3-yl)-N-((5-(4-(piperidine-1-carbonyl)phenyl)-7-(trifluoromethyl)benzofuran-2-yl)methyl)acrylamide] yielded an IC50 (3T3 cells; read-out: MTT Assay IC50 3T3) greater than 10000 nM, an IC50 (MS751 cells; [3]) of 100 to 5000 nM and an IC50 (Z138 cells; read-out: MTT Assay IC50 Z-138) of 100 to 5000 nM.
